Measured values taken from US10030047B2 (Hoffmann-La Roche Inc., priority 2015, dated 2018).
≈ marks a conversion by molar mass, not a printed value.

tested on: A. baumannii strain ATCC19606; test: Minimum inhibitory concentration (MIC) determination, microbroth dilution (CLSI); assay type: cell-based; conditions: Acinetobacter baumannii; A. baumannii ATCC19606; CAMHB; read after 20 hours; >=80% growth inhibition; read-out: ATCC19606 MIC
Protocol: The in vitro antimicrobial activity of the compounds was determined through microbroth minimum inhibitory concentration (MIC) methodology performed according to the Clinical and Laboratory Standard Institute guidelines (CLSI—M07-A9 Jan. 2012. Methods for Dilution Antimicrobial Susceptibility Tests for Bacteria That Grow Aerobically; Approved Standard—Ninth Edition, Clinical and Laboratory Standards Institute, Wayne/PA, US and the CLSI—M100-S24 Jan. 2014. Performance Standards for Antimicrobial Susceptibility Testing; Approved Standard—Fourth Informational Supplement, Clinical and Laboratory Standards Institute, Wayne/PA, US).
The compound stock solution was freshly prepared at 10× the required top concentration for the MIC determination, i.e. at 1280 mg/L, by reconstitution of the dry compound in 50:50 water:DMSO.
Polystyrene non-treated 96 wells microtiter plates were used for preparing panel containing compound serial twofold diluted at two times the final testing concentration (e.g. range from 64 to 0.06 μg/ml) in cation adjusted Mueller Hinton broth medium (CAMHB).
Inoculum was prepared by the “direct colony suspension method”. Colonies of A. baumannii ATCC19606 or clinical isolates were suspended in saline solution and adjusted to 0.5 McFarland, diluted 100 times in CAMHB broth and 50 μl added to each well (final concentration of cells ˜5×10^(5) CFU/ml and Final volume/well of 100 μl). Microtiter plates were sealed and incubated at 35±2° C.
MICs values were read after 20 hours of incubation and recorded as the lowest concentration of the antimicrobial that inhibits more or equal to 80% of growth of the organism as detected by the unaided eye and using a microtiter plate optical density reader (OD 600 nm).
Tables 2, 3, 4 and 5 provide the minimum inhibitory concentration (MIC) in microgram per milliliter of the compounds of present invention obtained against the A. baumannii strain ATCC19606 (Tables 2, 3, 4 and 5).

Row | MIC [µg/mL] | SMILES
1 | 2 (≈ 2.64 µM) | CN1C(=O)[C@H](CCCCN)NC(=O)[C@H](CCCN)NCc2cc(F)ccc2Sc2c(Cl)cc(Cl)cc2CNC(=O)[C@@H]1Cc1c[nH]c2ccccc12 [Example 27, (12S,15S,18S)-15-(4-Amino-butyl)-18-(3-amino-propyl)-4,6-dichloro-23-fluoro-12-(1H-indol-3-ylmethyl)-13-methyl-2-thia-10,13,16,19-tetraaza-tricyclo[19.4.0.0*3,8*]pentacosa-1(25),3,5,7,21,23-hexaene-11,14,17-trione]
2 | 2 (≈ 2.84 µM) | CN1C(=O)[C@H](CCCCN)NC(=O)[C@H](CCCN)NCc2cccnc2Sc2c(Cl)cccc2CNC(=O)[C@@H]1Cc1c[nH]c2ccccc12 [Example 28, (11S,14S,17S)-14-(4-Amino-butyl)-11-(3-amino-propyl)-25-chloro-17-(1H-indol-3-ylmethyl)-16-methyl-2-thia-4,10,13,16,19-pentaaza-tricyclo[19.4.0.0*3,8*]pentacosa-1(25),3,5,7,21,23-hexaene-12,15,18-trione]
3 | 2 (≈ 2.83 µM) | CN1C(=O)[C@H](CCCCN)NC(=O)[C@H](CCCN)NCc2ccccc2Sc2c(F)ccc(F)c2CNC(=O)[C@@H]1Cc1c[nH]c2ccccc12 [Example 29, (12S,15S,18S)-15-(4-Amino-butyl)-18-(3-amino-propyl)-4,7-difluoro-12-(1H-indol-3-ylmethyl)-13-methyl-2-thia-10,13,16,19-tetraaza-tricyclo[19.4.0.0*3,8*]pentacosa-1(21),3,5,7,22,24-hexaene-11,14,17-trione]
4 | 2 (≈ 2.91 µM) | CN1C(=O)[C@H](CCCCN)NC(=O)[C@H](CCCN)NCc2ccccc2Sc2c(F)cccc2CNC(=O)[C@@H]1Cc1c[nH]c2ccccc12 [Example 30, (12S,15S,18S)-15-(4-Amino-butyl)-18-(3-amino-propyl)-4-fluoro-12-(1H-indol-3-ylmethyl)-13-methyl-2-thia-10,13,16,19-tetraaza-tricyclo[19.4.0.0*3,8*]pentacosa-1(21),3,5,7,22,24-hexaene-11,14,17-trione]
5 | 1 (≈ 1.29 µM) | CN1C(=O)[C@H](CCCCN)NC(=O)[C@H](CCCN)NCc2ccccc2Sc2c(cc(Cl)cc2C(F)(F)F)CNC(=O)[C@@H]1Cc1c[nH]c2ccccc12 [Example 31, (12S,15S,18S)-15-(4-Amino-butyl)-18-(3-amino-propyl)-6-chloro-12-(1H-indol-3-ylmethyl)-13-methyl-4-trifluoromethyl-2-thia-10,13,16,19-tetraaza-tricyclo[19.4.0.0*3,8*]pentacosa-1(25),3,5,7,21,23-hexaene-11,14,17-trione]
6 | 2 (≈ 2.92 µM) | Cc1[nH]c2ccccc2c1C[C@H]1C(=O)NCc2ccccc2Sc2ccccc2CN[C@@H](CCCN)C(=O)N[C@@H](CCCCN)C(=O)N1C [Example 32, (12S,15S,18S)-15-(4-Amino-butyl)-18-(3-amino-propyl)-13-methyl-12-(2-methyl-1H-indol-3-ylmethyl)-2-thia-10,13,16,19-tetraaza-tricyclo[19.4.0.0*3,8*]pentacosa-1(21),3,5,7,22,24-hexaene-11,14,17-trione]
7 | 1 (≈ 1.42 µM) | CN1C(=O)[C@H](CCCCN)NC(=O)[C@H](CCCN)NCc2cccnc2Sc2ccc(Cl)cc2CNC(=O)[C@@H]1Cc1c[nH]c2ccccc12 [Example 33, (11S,14S,17S)-14-(4-Amino-butyl)-11-(3-amino-propyl)-23-chloro-17-(1H-indol-3-ylmethyl)-16-methyl-2-thia-4,10,13,16,19-pentaaza-tricyclo[19.4.0.0*3,8*]pentacosa-1(25),3,5,7,21,23-hexaene-12,15,18-trione]
8 | 16 (≈ 22.7 µM) | CN1C(=O)[C@H](CCCCN)NC(=O)[C@H](CCCN)NCc2cccnc2Sc2cccc(Cl)c2CNC(=O)[C@@H]1Cc1c[nH]c2ccccc12 [Example 34, (11S,14S,17S)-14-(4-Amino-butyl)-11-(3-amino-propyl)-22-chloro-17-(1H-indol-3-ylmethyl)-16-methyl-2-thia-4,10,13,16,19-pentaaza-tricyclo[19.4.0.0*3,8*]pentacosa-1(25),3,5,7,21,23-hexaene-12,15,18-trione]
9 | 8 (≈ 11.6 µM) | CN1C(=O)[C@H](CCCCN)NC(=O)[C@H](CCCN)NCc2c(F)cccc2Sc2ccccc2CNC(=O)[C@@H]1Cc1c[nH]c2ccccc12 [Example 35, (12S,15S,18S)-15-(4-Amino-butyl)-18-(3-amino-propyl)-22-fluoro-12-(1H-indol-3-ylmethyl)-13-methyl-2-thia-10,13,16,19-tetraaza-tricyclo[19.4.0.0*3,8*]pentacosa-1(21),3,5,7,22,24-hexaene-11,14,17-trione]
10 | 1 (≈ 1.35 µM) | CN1C(=O)[C@H](CCCCN)NC(=O)[C@H](CCCN)NCc2cccnc2Sc2c(cccc2C(F)(F)F)CNC(=O)[C@@H]1Cc1c[nH]c2ccccc12 [Example 36, (11S,14S,17S)-14-(4-Amino-butyl)-11-(3-amino-propyl)-17-(1H-indol-3-ylmethyl)-16-methyl-25-trifluoromethyl-2-thia-4,10,13,16,19-pentaaza-tricyclo[19.4.0.0*3,8*]pentacosa-1(25),3,5,7,21,23-hexaene-12,15,18-trione]

Second part, the compound before the results:

Row | SMILES | MIC [µg/mL]
11 | CN1C(=O)[C@H](CCCCN)NC(=O)[C@H](CCCN)NCc2ccccc2Sc2ccc(Cl)cc2CNC(=O)[C@@H]1Cc1cn(C)c2cc(Cl)ccc12 [Example 19, (12S,15S,18S)-15-(4-Amino-butyl)-18-(3-amino-propyl)-6-chloro-12-(6-chloro-1-methyl-1H-indol-3-ylmethyl)-13-methyl-2-thia-10,13,16,19-tetraaza-tricyclo[19.4.0.0*3,8*]pentacosa-1(21),3,5,7,22,24-hexaene-11,14,17-trione] | 16 (≈ 21.3 µM)
12 | C[C@@H]1NC(=O)[C@H](Cc2c[nH]c3ccccc23)N(C)C(=O)[C@H](CCCCN)NC(=O)[C@H](CCCN)NCc2ccccc2Sc2ccc(Cl)cc21 [Example 20, (9S,12S,15S,18S)-15-(4-Amino-butyl)-18-(3-amino-propyl)-6-chloro-12-(1H-indol-3-ylmethyl)-9,13-dimethyl-2-thia-10,13,16,19-tetraaza-tricyclo[19.4.0.0*3,8*]pentacosa-1(25),3,5,7,21,23-hexaene-11,14,17-trione] | 2 (≈ 2.78 µM)
13 | CN1C(=O)[C@H](CCCCN)NC(=O)[C@H](CCCN)NCc2ccccc2Sc2ccc(Cl)c(Cl)c2CNC(=O)[C@@H]1Cc1c[nH]c2ccccc12 [Example 21, (12S,15S,18S)-15-(4-Amino-butyl)-18-(3-amino-propyl)-6,7-dichloro-12-(1H-indol-3-ylmethyl)-13-methyl-2-thia-10,13,16,19-tetraaza-tricyclo[19.4.0.0*3,8*]pentacosa-1(25),3,5,7,21,23-hexaene-11,14,17-trione] | 1 (≈ 1.35 µM)
14 | CN1C(=O)[C@H](CCCCN)NC(=O)[C@H](CCCN)NCc2ccccc2Sc2cccc(Cl)c2CNC(=O)[C@@H]1Cc1c[nH]c2ccccc12 [Example 22, (12S,15S,18S)-15-(4-Amino-butyl)-18-(3-amino-propyl)-7-chloro-12-(1H-indol-3-ylmethyl)-13-methyl-2-thia-10,13,16,19-tetraaza-tricyclo[19.4.0.0*3,8*]pentacosa-1(25),3,5,7,21,23-hexaene-11,14,17-trione] | 32 (≈ 45.4 µM)
15 | CN1C(=O)[C@H](CCCCN)NC(=O)[C@H](CCCN)NCc2ccccc2Sc2c(Cl)ccc(Cl)c2CNC(=O)[C@@H]1Cc1c[nH]c2ccccc12 [Example 23, (12S,15S,18S)-15-(4-Amino-butyl)-18-(3-amino-propyl)-4,7-dichloro-12-(1H-indol-3-ylmethyl)-13-methyl-2-thia-10,13,16,19-tetraaza-tricyclo[19.4.0.0*3,8*]pentacosa-1(25),3,5,7,21,23-hexaene-11,14,17-trione] | 0.5 (≈ 0.677 µM)
16 | CN1C(=O)[C@H](CCCCN)NC(=O)[C@H](CCCN)NCc2ccccc2Sc2c(Cl)ccc(C(F)(F)F)c2CNC(=O)[C@@H]1Cc1c[nH]c2ccccc12 [Example 24, (12S,15S,18S)-15-(4-Amino-butyl)-18-(3-amino-propyl)-4-chloro-12-(1H-indol-3-ylmethyl)-13-methyl-7-trifluoromethyl-2-thia-10,13,16,19-tetraaza-tricyclo[19.4.0.0*3,8*]pentacosa-1(25),3,5,7,21,23-hexaene-11,14,17-trione] | 1 (≈ 1.29 µM)
17 | CN1C(=O)[C@H](CCCCN)NC(=O)[C@H](CCCN)NCc2ccccc2Sc2c(Cl)cc(C(F)(F)F)cc2CNC(=O)[C@@H]1Cc1c[nH]c2ccccc12 [Example 25, (12S,15S,18S)-15-(4-Amino-butyl)-18-(3-amino-propyl)-4-chloro-12-(1H-indol-3-ylmethyl)-13-methyl-6-trifluoromethyl-2-thia-10,13,16,19-tetraaza-tricyclo[19.4.0.0*3,8*]pentacosa-1(25),3,5,7,21,23-hexaene-11,14,17-trione] | 1 (≈ 1.29 µM)
18 | CN1C(=O)[C@H](CCCCN)NC(=O)[C@H](CCCN)NCc2ccccc2Sc2c(Cl)ccc(F)c2CNC(=O)[C@@H]1Cc1c[nH]c2ccccc12 [Example 26, (12S,15S,18S)-15-(4-Amino-butyl)-18-(3-amino-propyl)-4-chloro-7-fluoro-12-(1H-indol-3-ylmethyl)-13-methyl-2-thia-10,13,16,19-tetraaza-tricyclo[19.4.0.0*3,8*]pentacosa-1(25),3,5,7,21,23-hexaene-11,14,17-trione] | 1 (≈ 1.38 µM)
